From the supplement of paper PMC11061612

Tests used:
Assay in all cases: combination Emax (second highest fraction inhibited in the dose matrix, 72 h); higher = more inhibition; extreme values may be limits of the assay
HOS (Osteosarcoma) = tested on: HOS (Osteosarcoma)
Procedure, shortened: (§1)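 After 24 hours at 37°C and 5% CO2 in 1536-well plates, cells in DMEM/F12 or RPMI plus 10% FBS received two-drug dose matrices for 72 hours. Viability came from CellTiter-Glo 2.0 luminescence and was scaled as inhibition, anchored at 0 by vehicle wells and at 1 by blank wells. Combination Emax is taken as the second-highest inhibition in the matrix, and Bliss excess as the observed combination effect less EA + EB − EA·EB, with EA and EB the single-agent effects.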

[1] = tested on: HCC-78 (Lung Adenocarcinoma)
Procedure, shortened: as §1

[2] = tested on: DEL (T-Cell Non-Hodgkin's Lymphoma)
Procedure, shortened: as §1

[3] = tested on: KURAMOCHI (Ovarian Carcinoma)
Procedure, shortened: as §1

[4] = tested on: HO-1-N-1 (Oral Cavity Carcinoma)
Procedure, shortened: as §1

NB10 (Neuroblastoma) = tested on: NB10 (Neuroblastoma)
Procedure, shortened: as §1

[5] = tested on: TCCSUP (Bladder Carcinoma)
Procedure, shortened: as §1

[6] = tested on: UM-UC-3 (Bladder Carcinoma)
Procedure, shortened: as §1

[7] = tested on: Ramos-2G6-4C10 (Burkitt's Lymphoma)
Procedure, shortened: as §1

[8] = tested on: CCRF-CEM (T-Lymphoblastic Leukemia)
Procedure, shortened: as §1

T98G (Glioblastoma) = tested on: T98G (Glioblastoma)
Procedure, shortened: as §1

[9] = tested on: Hs-578-T (Breast Carcinoma)
Procedure, shortened: as §1

[10] = tested on: NCI-H2085 (Non-Small Cell Lung Carcinoma)
Procedure, shortened: as §1

[11] = tested on: SK-ES-1 (Ewing's Sarcoma)
Procedure, shortened: as §1

[12] = tested on: RO82-W-1 (Thyroid Gland Carcinoma)
Procedure, shortened: as §1

[13] = tested on: Daoy (Other Solid Carcinomas)
Procedure, shortened: as §1

[14] = tested on: HT-1376 (Bladder Carcinoma)
Procedure, shortened: as §1

ES4 (Ewing's Sarcoma) = tested on: ES4 (Ewing's Sarcoma)
Procedure, shortened: as §1

42-MG-BA (Glioblastoma) = tested on: 42-MG-BA (Glioblastoma)
Procedure, shortened: as §1

[15] = tested on: ME-1 (Acute Myeloid Leukemia)
Procedure, shortened: as §1

SMILES: Cc1cc2ncnn2cc1Nc1ncc2c(n1)n(C1CCOCC1)c(=O)n2C [AZD7648] + CCN(CCO)CCCOc1ccc2c(Nc3cc(CC(=O)Nc4cccc(F)c4)[nH]n3)ncnc2c1 [AZD2811] (first compound max 10 µM, 7x7, partner max 1 µM)
- combination Emax (HOS (Osteosarcoma)): 0.273
- combination Emax [1]: 0.342
- combination Emax [2]: 0.727
- combination Emax [3]: 0.238
- combination Emax [4]: 0.826
- combination Emax (NB10 (Neuroblastoma)): 0.335
- combination Emax [5]: 0.387
- combination Emax [6]: 0.298
- combination Emax [7]: 0.789
- combination Emax [8]: 1
- combination Emax (T98G (Glioblastoma)): 0.467
- combination Emax [9]: 0.623
- combination Emax [10]: 0.717
- combination Emax [11]: 0.964
- combination Emax [12]: 0.358
- combination Emax [13]: 0.445
- combination Emax [14]: 0.235
- combination Emax (ES4 (Ewing's Sarcoma)): 0.279
- combination Emax (42-MG-BA (Glioblastoma)): 0.472
- combination Emax [15]: 0.27

SMILES: Cc1cc2ncnn2cc1Nc1ncc2c(n1)n(C1CCOCC1)c(=O)n2C [AZD7648] + CN(C)CCCOc1ccc(-c2ccc3ncc4c(c3c2)n(C2CCOCC2)c(=O)n4C)cn1 [AZD0156] (first compound max 10 µM, 7x7, partner max 1 µM)
- combination Emax (HOS (Osteosarcoma)): 0.273
- combination Emax [1]: 0.263
- combination Emax [2]: 0.412
- combination Emax [3]: 0.192
- combination Emax [4]: 0.3
- combination Emax (NB10 (Neuroblastoma)): 0.307
- combination Emax [5]: 0.197
- combination Emax [6]: 0.236
- combination Emax [7]: 0.292
- combination Emax [8]: 0.521
- combination Emax (T98G (Glioblastoma)): 0.266
- combination Emax [9]: 0.513
- combination Emax [10]: 0.234
- combination Emax [11]: 0.503
- combination Emax [12]: 0.394
- combination Emax [13]: 0.313
- combination Emax [14]: 0.2
- combination Emax (ES4 (Ewing's Sarcoma)): 0.0963
- combination Emax (42-MG-BA (Glioblastoma)): 0.398
- combination Emax [15]: 0.213

SMILES: Cc1cc2ncnn2cc1Nc1ncc2c(n1)n(C1CCOCC1)c(=O)n2C [AZD7648] + C[C@@H]1COCCN1C2=NC(=NC(=C2)C3(CC3)[S@](=N)(=O)C)C4=C5C=CNC5=NC=C4 [AZD6738] (first compound max 10 µM, 7x7, partner max 10 µM)
- combination Emax (HOS (Osteosarcoma)): 0.691
- combination Emax [1]: 0.635
- combination Emax [2]: 0.977
- combination Emax [3]: 0.567
- combination Emax [4]: 0.706
- combination Emax (NB10 (Neuroblastoma)): 0.801
- combination Emax [5]: 0.569
- combination Emax [6]: 0.41
- combination Emax [7]: 0.944
- combination Emax [8]: 0.997
- combination Emax (T98G (Glioblastoma)): 0.859
- combination Emax [9]: 0.912
- combination Emax [10]: 0.608
- combination Emax [11]: 0.816
- combination Emax [12]: 0.478
- combination Emax [13]: 0.784
- combination Emax [14]: 0.546
- combination Emax (ES4 (Ewing's Sarcoma)): 0.686
- combination Emax (42-MG-BA (Glioblastoma)): 0.692
- combination Emax [15]: 0.378

SMILES: Cc1cc2ncnn2cc1Nc1ncc2c(n1)n(C1CCOCC1)c(=O)n2C [AZD7648] + O=C(c1cc(Cc2n[nH]c(=O)c3ccccc23)ccc1F)N1CCN(C(=O)C2CC2)CC1 [Olaparib] (first compound max 10 µM, 7x7, partner max 10 µM)
- combination Emax (HOS (Osteosarcoma)): 0.195
- combination Emax [1]: 0.242
- combination Emax [2]: 0.693
- combination Emax [3]: 0.16
- combination Emax [4]: 0.324
- combination Emax (NB10 (Neuroblastoma)): 0.426
- combination Emax [5]: 0.134
- combination Emax [6]: 0.145
- combination Emax [7]: 0.169
- combination Emax [8]: 0.454
- combination Emax (T98G (Glioblastoma)): 0.203
- combination Emax [9]: 0.507
- combination Emax [10]: 0.036
- combination Emax [11]: 0.923
- combination Emax [12]: 0.251
- combination Emax [13]: 0.357
- combination Emax [14]: 0.0682
- combination Emax (ES4 (Ewing's Sarcoma)): 0.572
- combination Emax (42-MG-BA (Glioblastoma)): 0.464
- combination Emax [15]: 0.172

SMILES: NC1(C(=O)N[C@@H](CCO)c2ccc(Cl)cc2)CCN(c2ncnc3[nH]ccc23)CC1 [Capivasertib] + CC(=O)c1c(C)c2cnc(Nc3ccc(N4CCNCC4)cn3)nc2n(C2CCCC2)c1=O [Palbociclib] (first compound max 10 µM, 7x7, partner max 10 µM)
- combination Emax (HOS (Osteosarcoma)): 0.504
- combination Emax [1]: 0.344
- combination Emax [2]: 0.892
- combination Emax [3]: 0.29
- combination Emax [4]: 0.635
- combination Emax (NB10 (Neuroblastoma)): 0.369
- combination Emax [5]: 0.317
- combination Emax [6]: 0.491
- combination Emax [7]: 0.42
- combination Emax [8]: 0.798
- combination Emax (T98G (Glioblastoma)): 0.6
- combination Emax [9]: 0.676
- combination Emax [10]: 0.295
- combination Emax [11]: 0.655
- combination Emax [12]: 0.218
- combination Emax [13]: 0.397
- combination Emax [14]: 0.144
- combination Emax (ES4 (Ewing's Sarcoma)): 0.412
- combination Emax (42-MG-BA (Glioblastoma)): 0.639
- combination Emax [15]: 0.257

SMILES: NC1(C(=O)N[C@@H](CCO)c2ccc(Cl)cc2)CCN(c2ncnc3[nH]ccc23)CC1 [Capivasertib] + CC(C)n1c(=O)n(C)c2cnc3cc(F)c(-c4ccc(OCCCN5CCCCC5)nc4)cc3c21 [AZD1390] (first compound max 10 µM, 7x7, partner max 0.3 µM)
- combination Emax (HOS (Osteosarcoma)): 0.41
- combination Emax [1]: 0.259
- combination Emax [2]: 0.44
- combination Emax [3]: 0.294
- combination Emax [4]: 0.435
- combination Emax (NB10 (Neuroblastoma)): 0.221
- combination Emax [5]: 0.321
- combination Emax [6]: 0.311
- combination Emax [7]: 0.447
- combination Emax [8]: 0.457
- combination Emax (T98G (Glioblastoma)): 0.449
- combination Emax [9]: 0.682
- combination Emax [10]: 0.258
- combination Emax [11]: 0.448
- combination Emax [12]: 0.244
- combination Emax [13]: 0.33
- combination Emax [14]: 0.144
- combination Emax (ES4 (Ewing's Sarcoma)): 0.277
- combination Emax (42-MG-BA (Glioblastoma)): 0.686
- combination Emax [15]: 0.237
